The nature of data set [1]: Solubility measurement (excess added to solvent, shaken one hour, supernatant assayed). Type of data set: physicochemical. To be noted: thermodynamic from solid, 25° C. As for the experimental part:
Incidentally, the method for measuring the solubility in each example is as follows. Thus, an excessive amount of the present compound was added to a certain amount of solvent, the mixture was shaken for one hour, the supernatant liquid was removed and the amount of the present compound contained therein was measured wherefrom the solubility was calculated.

Data set [2] concerns Helicobacter pylori ATCC 43504. Kind of data set: Eradication of Helicobacter pylori in stomach of infected Mongolian gerbils (viable cell counting). Type of data set: in vivo. Conditions: oral 10 ml/kg three times on the 11th day, stomach viable cells 20 hours after final administration, individual animals 1-3, versus control 3.7 × 10^4 CFU/stomach, hydrochloride. Here is the method:
Helicobacter pylori ATCC 43504 (100 μl) was inoculated into Brain heart infusion broth containing 10% calf serum and incubated at 37° C. for 24 hours in a microaerophilic atmosphere. The culture broth (0.5 ml containing about 3×10^8 CFU/ml) was administered orally to Mongolian gerbils (MON/Jms/Gba Slc; male of six weeks age) after fasting for 24 hours, then neither feed nor water was given for four hours and, after that, the animals were given with feed and water for ten days. Three infected animals as prepared in (1) were used per group. They were fasted from 20 hours before the 11th day (although water was made freely taken by them) and, during the fasted stage, 10 ml/kg each of the test drugs for administration prepared in Examples and Comparative Examples were orally given to them at 9:00, 13:00 and 17:00 o'clock on the 11th day. Feeding was started as from 21:00 o'clock and, after 20 hours from the final administration, stomach of the animals was removed and Helicobacter pylori living therein was subjected to a viable cell counting. The stomachs were cut open and the contents were removed (no washing conducted) and homogenized in 20 ml of 0.1M phosphate buffer (pH 7.2) to give a sample for viable cell counting. […] The growing colonies were counted after 6 days. […] Incidentally, the eradication rate was calculated according to the following calculating expression. […]

Where “and” joins values, the source holds several entries; their conditions need not be identical. Equal entries are not always repeated. Where two headings read alike, the source gives them in different places. A value given as a limit tells only on which side of the number the result lay.

Take `Cc1ccc(COC(=O)c2ccc(-c3ccc(OC(=O)[C@H]4CC[C@H](CNC(=N)N)CC4)cc3)cc2)cc1.Cl` [Comp.Ex.1, 4-[4-(4-Methylbenzyloxycarbonyl)phenyl]phenyl trans-4-guanidinomethylcyclohexanecarboxylate hydrochloride]: the solubility at 1 h in data set [1] (0.05M phosphate buffer, aqueous buffer, pH 6.5, read-out: Solubility in 0.05M phosphate buffer (pH 6.5)) was less than 0.1 µg/mL; in data set [1] (0.1M acetate buffer, aqueous buffer, pH 4.0, read-out: Solubility in 0.1M acetate buffer (pH 4.0)), less than 0.1 µg/mL; in data set [1] (first fluid (The Japanese Pharmacopoeia), simulated gastric fluid, pH 1.2, read-out: Solubility in the first fluid (The Japanese Pharmacopoeia) (pH 1.2)) it was less than 0.1 µg/mL; in data set [1] (water, read-out: Solubility in water), 24 µg/mL. In data set [2], the “Eradication Rate (%)” value is 95.7% and 62.2% and 0%.

(Values after US6444703B1, “Cyclohexane carbocyclic ester derivative and cyclodextrin complex and composition for treatment of helicobacter pylori infections” (Teikoku Chemical Industries Co., Ltd., priority 1995, dated 2002).)
